In paper PMC12133000 (PLOS One, 2025):
Several values for one entry are separate records, joined by “and”; a condition that tells them apart may be missing. Identical values can stand only once.

Experiment: Pharmacokinetics of rivaroxaban in rats after avitinib or gefitinib pretreatment
Assay type: in vivo, Sprague–Dawley (SD) rats
Design: AUC(0-∞): concentration or dose not given beside the values
Description: Eighteen male Sprague–Dawley (SD) rats weighing 300 ± 20 g were provided by the Experimental Animal Center of Wenzhou Medical University (Wenzhou, China) and kept under controlled conditions at a temperature of 23 ± 2 °C, relative humidity of 50 ± 10%, and 12 h light–dark cycle. Eighteen male SD rats were randomly assigned to three groups: avitinib, gefitinib, and control, with six rats per group. Prior to the experiment, the rats were not administered any other medications and fasted for 12 h. The experimental procedures and protocols adhered to Animal Ethics standards and were approved by the Animal Care and Use Committee of Wenzhou Medical University (approval no. wydw2019–650). All rats were anesthetized with sodium pentobarbital (40mg/kg, i.p) to relieve pain. The rats were killed through cervical dislocation.
Prior to the experiment in vivo, the six rats in the avitinib group were administered 30 mg/kg avitinib and 0.5% sodium carboxymethyl cellulose (CMC-Na) solution by gavage daily for 7 d. […] The supernatant was collected and stored at −80 °C. After thawing, 50 μL of plasma was extracted; 100 μL of acetonitrile solution containing midazolam (200 ng/mL) was then added to induce protein precipitation. After vortexing for 30 s and centrifuging at 13,000 rpm for 5 min, the […].
All assays were performed in triplicate, and the results are expressed as mean ± standard deviation. DAS software v. […] SPSS v. 25.0 (IBM, NY, USA) was used for data processing. Student’s t-tests were used to detect differences between groups. Differences with p < 0.05 were considered statistically significant.

[1] = avitinib group, single rats No1-No6, listed as 利伐沙班
[2] = gefitinib group, single rats No1-No6, listed as 利伐沙班

O=C(NC[C@H]1CN(c2ccc(N3CCOCC3=O)cc2)C(=O)O1)c1ccc(Cl)s1 [rivaroxaban, Rivaroxaban]
AUMC(0-t) (avitinib group, Mean): 34198 h*h*ug/L | AUMC(0-∞) (avitinib group, Mean): 40098.5 h*h*ug/L | MRT(0-∞) (avitinib group, Mean): 4.258 h | R_AUC(t/∞) (avitinib group, Mean): 96.35% | VRT(0-t) (avitinib group, Mean): 6.828 h^2 | VRT(0-∞) (avitinib group, Mean): 12.881 h^2 | Vz/F (avitinib group, Mean): 3.719 L/kg | AUC(0-t) [1]: 6581.83 ng·h/mL and 7888.62 ng·h/mL and 9151.91 ng·h/mL and 7417.4 ng·h/mL and 6560.88 ng·h/mL and 16372.3 ng·h/mL | AUC(0-∞) [1]: 6854.37 ng·h/mL and 9138.32 ng·h/mL and 9162.9 ng·h/mL and 7462.9 ng·h/mL and 6602.34 ng·h/mL and 16863.5 ng·h/mL | AUMC(0-t) [1]: 25199.7 h*h*ug/L and 32914.3 h*h*ug/L and 26176.1 h*h*ug/L and 34761 h*h*ug/L and 21050.6 h*h*ug/L and 65086.6 h*h*ug/L | AUMC(0-∞) [1]: 29578.1 h*h*ug/L and 55191.1 h*h*ug/L and 26325.9 h*h*ug/L and 35414.7 h*h*ug/L and 21638.6 h*h*ug/L and 72442.7 h*h*ug/L | CLz/F [1]: 24.32 mL/min/kg and 18.23 mL/min/kg and 18.18 mL/min/kg and 22.3 mL/min/kg and 25.25 mL/min/kg and 9.88 mL/min/kg | Cmax [1]: 1423.2 ng/mL and 1593.7 ng/mL and 2386.3 ng/mL and 1162.7 ng/mL and 1561.2 ng/mL and 2761.8 ng/mL | MRT(0-t) [1]: 4.172 h and 2.86 h and 4.686 h and 3.208 h and 3.975 h | MRT(0-∞) [1]: 4.315 h and 6.04 h and 4.745 h and 3.277 h and 4.296 h | R_AUC(t/∞) [1]: 96% and 86.3% and 99.9% and 99.4% (2×) and 97.1% | VRT(0-t) [1]: 8.179 h^2 and 9.654 h^2 and 3.358 h^2 and 8.878 h^2 and 4.734 h^2 and 6.165 h^2 | VRT(0-∞) [1]: 14.228 h^2 and 34.982 h^2 and 3.496 h^2 and 9.426 h^2 and 5.486 h^2 and 9.666 h^2 | Vz/F [1]: 5.931 L/kg and 6.375 L/kg and 1.763 L/kg and 3.171 L/kg and 3.308 L/kg and 1.765 L/kg | t1/2z [1]: 2.817 h and 4.037 h and 1.12 h and 1.64 h and 1.514 h and 2.062 h | λz [1]: 0.246 h⁻¹ and 0.172 h⁻¹ and 0.619 h⁻¹ and 0.423 h⁻¹ and 0.458 h⁻¹ and 0.336 h⁻¹ | AUMC(0-t) (gefitinib group, Mean): 283625 h*h*ug/L | AUMC(0-∞) (gefitinib group, Mean): 684002 h*h*ug/L | R_AUC(t/∞) (gefitinib group, Mean): 79.633% | VRT(0-t) (gefitinib group, Mean): 8.14 h^2 | VRT(0-∞) (gefitinib group, Mean): 63.366 h^2 | AUC(0-t) [2]: 48396.5 ng·h/mL and 60392.6 ng·h/mL and 53896.5 ng·h/mL and 64214.9 ng·h/mL and 58569.4 ng·h/mL | AUC(0-∞) [2]: 54327.6 ng·h/mL and 62633.7 ng·h/mL and 64818.2 ng·h/mL and 71935.8 ng·h/mL and 93798.8 ng·h/mL | AUMC(0-t) [2]: 349046 h*h*ug/L and 247888 h*h*ug/L and 261964 h*h*ug/L and 270195 h*h*ug/L and 282576 h*h*ug/L and 290080 h*h*ug/L | AUMC(0-∞) [2]: 1493251 h*h*ug/L and 344803 h*h*ug/L and 295419 h*h*ug/L and 469845 h*h*ug/L and 411554 h*h*ug/L and 1089140 h*h*ug/L | Cmax [2]: 6430.2 ng/mL and 11259.7 ng/mL and 7015.4 ng/mL and 10641.7 ng/mL and 7734.1 ng/mL | MRT(0-t) [2]: 5.122 h and 4.338 h and 5.013 h and 4.4 h and 4.953 h | MRT(0-∞) [2]: 13.743 h and 6.347 h and 4.717 h and 7.249 h and 5.721 h and 11.611 h | R_AUC(t/∞) [2]: 57.4% and 89.1% and 96.4% and 83.2% and 89.3% and 62.4% | VRT(0-t) [2]: 10.639 h^2 and 8.135 h^2 and 6.361 h^2 and 8.635 h^2 and 7.676 h^2 and 7.393 h^2 | VRT(0-∞) [2]: 164.942 h^2 and 21.543 h^2 and 10.309 h^2 and 38.485 h^2 and 23.734 h^2 and 121.182 h^2 | Vz/F [2]: 1.173 L/kg and 0.799 L/kg and 0.467 L/kg and 0.969 L/kg and 0.654 L/kg and 1.139 L/kg | t1/2z [2]: 8.833 h and 3.008 h and 2.029 h and 4.352 h and 3.261 h and 7.402 h | λz [2]: 0.078 h⁻¹ and 0.23 h⁻¹ and 0.342 h⁻¹ and 0.159 h⁻¹ and 0.213 h⁻¹ and 0.094 h⁻¹ | concentration at 5 min (male, Sprague-Dawley, rat, plasma, oral, 10 mg/kg, rivaroxaban ng/ml mean, control (rivaroxaban alone) group, mean of rats 13-18, time 0.0833): 158 ng/mL | concentration at 0.25 h (male, Sprague-Dawley, rat, plasma, oral, 10 mg/kg, rivaroxaban ng/ml mean, control (rivaroxaban alone) group, mean of rats 13-18, time 0.25): 259 ng/mL | concentration at 0.5 h (male, Sprague-Dawley, rat, plasma, oral, 10 mg/kg, rivaroxaban ng/ml mean, control (rivaroxaban alone) group, mean of rats 13-18, time 0.5): 397 ng/mL | concentration at 1 h (male, Sprague-Dawley, rat, plasma, oral, 10 mg/kg, rivaroxaban ng/ml mean, control (rivaroxaban alone) group, mean of rats 13-18, time 1): 435 ng/mL | concentration at 2 h (male, Sprague-Dawley, rat, plasma, oral, 10 mg/kg, rivaroxaban ng/ml mean, control (rivaroxaban alone) group, mean of rats 13-18, time 2): 337 ng/mL | concentration at 3 h (male, Sprague-Dawley, rat, plasma, oral, 10 mg/kg, rivaroxaban ng/ml mean, control (rivaroxaban alone) group, mean of rats 13-18, time 3): 291 ng/mL | concentration at 4 h (male, Sprague-Dawley, rat, plasma, oral, 10 mg/kg, rivaroxaban ng/ml mean, control (rivaroxaban alone) group, mean of rats 13-18, time 4): 238 ng/mL
